Assay results taken from the supplement of paper PMC10307832.

How the values were obtained:
Test in all cases: relative viability (nuclei count vs DMSO), 5 days (fraction); higher = more cells survive
SW 900 = test system: SW 900
Procedure, shortened: (§1)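 Nuclei were stained with Hoechst during a one-step fixation (final 0.05% Triton X-100, 1% formaldehyde, 1 ug/ml Hoechst) carried out 5 days after dosing, then counted on 4× images. The cells, lung cancer lines in 1536-well plates, had been dosed by pin tool the day after seeding with one drug alone or a fixed anchor-drug dose plus five library-drug doses (not always all listed) in √10 steps. Relative viability is the nuclei count in treated wells divided by that in vehicle wells, and each value is the median of duplicate plates.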

NCI-H1437 = test system: NCI-H1437
Procedure, shortened: as §1

NCI-H1395 = test system: NCI-H1395
Procedure, shortened: as §1

LU99A = test system: LU99A
Procedure, shortened: as §1

NCI-H2126 = test system: NCI-H2126
Procedure, shortened: as §1

NCI-H1755 = test system: NCI-H1755
Procedure, shortened: as §1

NCI-H358 = test system: NCI-H358
Procedure, shortened: as §1

BEN = test system: BEN
Procedure, shortened: as §1

HCC-15 = test system: HCC-15
Procedure, shortened: as §1

SW 1573 = test system: SW 1573
Procedure, shortened: as §1

EMC-BAC-2 = test system: EMC-BAC-2
Procedure, shortened: as §1

NCI-H1734 = test system: NCI-H1734
Procedure, shortened: as §1

NCI-H650 = test system: NCI-H650
Procedure, shortened: as §1

NCI-H3122 = test system: NCI-H3122
Procedure, shortened: as §1

NCI-H1563 = test system: NCI-H1563
Procedure, shortened: as §1

NCI-H2023 = test system: NCI-H2023
Procedure, shortened: as §1

NCI-H727 = test system: NCI-H727
Procedure, shortened: as §1

NCI-H1915 = test system: NCI-H1915
Procedure, shortened: as §1

HOP-62 = test system: HOP-62
Procedure, shortened: as §1

LC-2-ad = test system: LC-2-ad
Procedure, shortened: as §1

NCI-H2170 = test system: NCI-H2170
Procedure, shortened: as §1

Question: Cc1cn(-c2cc(NC(=O)c3ccc(C)c(Nc4nccc(-c5cccnc5)n4)c3)cc(C(F)(F)F)c2)cn1 [Nilotinib] + COc1cc2c(Oc3ccc(NC(=O)C4(C(=O)Nc5ccc(F)cc5)CC4)cc3F)ccnc2cc1OCCCN1CCOCC1 [Foretinib] (partner 0.25 µM) was tested. Which relative viability (SW 900; first compound 0.001 µM) did it give?
Answer: 0.664

Question: What about the relative viability (SW 900; first compound 0.003162 µM) of the same compound?
Answer: 0.814

Question: What about the relative viability (SW 900; first compound 0.01 µM) of the same compound?
Answer: 1.09

Question: And the relative viability (SW 900; first compound 0.03162 µM)?
Answer: 0.639

Question: What about the relative viability (SW 900; first compound 0.1 µM) of the same compound?
Answer: 0.902

Question: And the relative viability (NCI-H1437; first compound 0.001 µM)?
Answer: 1.2

Question: And the relative viability (NCI-H1437; first compound 0.003162 µM)?
Answer: 1.39

Question: And the relative viability (NCI-H1437; first compound 0.01 µM)?
Answer: 1.26

Question: What about the relative viability (NCI-H1437; first compound 0.03162 µM) of the same compound?
Answer: 1.03

Question: What about the relative viability (NCI-H1437; first compound 0.1 µM) of the same compound?
Answer: 1.27

Question: And the relative viability (NCI-H1395; first compound 0.001 µM)?
Answer: 1.07

Question: And the relative viability (NCI-H1395; first compound 0.003162 µM)?
Answer: 0.937

Question: What about the relative viability (NCI-H1395; first compound 0.01 µM) of the same compound?
Answer: 0.953

Question: And the relative viability (NCI-H1395; first compound 0.03162 µM)?
Answer: 0.853

Question: What about the relative viability (NCI-H1395; first compound 0.1 µM) of the same compound?
Answer: 1.02

Question: And the relative viability (LU99A; first compound 0.001 µM)?
Answer: 0.784

Question: And the relative viability (LU99A; first compound 0.003162 µM)?
Answer: 0.848

Question: And the relative viability (LU99A; first compound 0.01 µM)?
Answer: 0.889

Question: What about the relative viability (LU99A; first compound 0.03162 µM) of the same compound?
Answer: 0.823

Question: What about the relative viability (LU99A; first compound 0.1 µM) of the same compound?
Answer: 0.509

Question: What about the relative viability (NCI-H2126; first compound 0.001 µM) of the same compound?
Answer: 1.08

Question: And the relative viability (NCI-H2126; first compound 0.003162 µM)?
Answer: 1.41

Question: What about the relative viability (NCI-H2126; first compound 0.01 µM) of the same compound?
Answer: 1.26

Question: And the relative viability (NCI-H2126; first compound 0.03162 µM)?
Answer: 1.2

Question: What about the relative viability (NCI-H2126; first compound 0.1 µM) of the same compound?
Answer: 1.08

Question: What about the relative viability (NCI-H1755; first compound 0.001 µM) of the same compound?
Answer: 0.892

Question: What about the relative viability (NCI-H1755; first compound 0.003162 µM) of the same compound?
Answer: 0.968

Question: What about the relative viability (NCI-H1755; first compound 0.01 µM) of the same compound?
Answer: 0.974

Question: And the relative viability (NCI-H1755; first compound 0.03162 µM)?
Answer: 0.983

Question: And the relative viability (NCI-H1755; first compound 0.1 µM)?
Answer: 0.843

Question: And the relative viability (NCI-H358; first compound 0.001 µM)?
Answer: 0.655

Question: What about the relative viability (NCI-H358; first compound 0.003162 µM) of the same compound?
Answer: 0.8

Question: What about the relative viability (NCI-H358; first compound 0.01 µM) of the same compound?
Answer: 0.818

Question: And the relative viability (NCI-H358; first compound 0.03162 µM)?
Answer: 0.446

Question: And the relative viability (NCI-H358; first compound 0.1 µM)?
Answer: 0.346

Question: What about the relative viability (BEN; first compound 0.001 µM) of the same compound?
Answer: 0.829

Question: What about the relative viability (BEN; first compound 0.003162 µM) of the same compound?
Answer: 0.674

Question: And the relative viability (BEN; first compound 0.01 µM)?
Answer: 0.494

Question: What about the relative viability (BEN; first compound 0.03162 µM) of the same compound?
Answer: 0.647

Question: What about the relative viability (BEN; first compound 0.1 µM) of the same compound?
Answer: 0.285

Question: What about the relative viability (HCC-15; first compound 0.001 µM) of the same compound?
Answer: 0.975

Question: What about the relative viability (HCC-15; first compound 0.003162 µM) of the same compound?
Answer: 1.25

Question: What about the relative viability (HCC-15; first compound 0.01 µM) of the same compound?
Answer: 1.09

Question: What about the relative viability (HCC-15; first compound 0.03162 µM) of the same compound?
Answer: 0.858

Question: And the relative viability (HCC-15; first compound 0.1 µM)?
Answer: 0.754

Question: What about the relative viability (SW 1573; first compound 0.001 µM) of the same compound?
Answer: 0.949

Question: And the relative viability (SW 1573; first compound 0.003162 µM)?
Answer: 1.14

Question: And the relative viability (SW 1573; first compound 0.01 µM)?
Answer: 1.14

Question: What about the relative viability (SW 1573; first compound 0.03162 µM) of the same compound?
Answer: 0.753

Question: And the relative viability (SW 1573; first compound 0.1 µM)?
Answer: 0.808

Question: What about the relative viability (EMC-BAC-2; first compound 0.001 µM) of the same compound?
Answer: 0.963

Question: And the relative viability (EMC-BAC-2; first compound 0.003162 µM)?
Answer: 1.14

Question: And the relative viability (EMC-BAC-2; first compound 0.01 µM)?
Answer: 1.13

Question: And the relative viability (EMC-BAC-2; first compound 0.03162 µM)?
Answer: 0.922

Question: What about the relative viability (EMC-BAC-2; first compound 0.1 µM) of the same compound?
Answer: 1.02

Question: And the relative viability (NCI-H1734; first compound 0.001 µM)?
Answer: 0.771

Question: And the relative viability (NCI-H1734; first compound 0.01 µM)?
Answer: 0.895

Question: And the relative viability (NCI-H1734; first compound 0.03162 µM)?
Answer: 0.646

Question: And the relative viability (NCI-H1734; first compound 0.1 µM)?
Answer: 0.628

Question: What about the relative viability (NCI-H650; first compound 0.001 µM) of the same compound?
Answer: 0.982

Question: And the relative viability (NCI-H650; first compound 0.003162 µM)?
Answer: 0.999

Question: What about the relative viability (NCI-H650; first compound 0.03162 µM) of the same compound?
Answer: 0.986

Question: What about the relative viability (NCI-H650; first compound 0.1 µM) of the same compound?
Answer: 1

Question: And the relative viability (NCI-H3122; first compound 0.001 µM)?
Answer: 1.02

Question: What about the relative viability (NCI-H3122; first compound 0.003162 µM) of the same compound?
Answer: 1.09

Question: And the relative viability (NCI-H3122; first compound 0.01 µM)?
Answer: 1.08

Question: What about the relative viability (NCI-H3122; first compound 0.03162 µM) of the same compound?
Answer: 0.929

Question: What about the relative viability (NCI-H3122; first compound 0.1 µM) of the same compound?
Answer: 0.68

Question: And the relative viability (NCI-H1563; first compound 0.001 µM)?
Answer: 0.933

Question: And the relative viability (NCI-H1563; first compound 0.003162 µM)?
Answer: 0.896

Question: And the relative viability (NCI-H1563; first compound 0.01 µM)?
Answer: 0.875

Question: What about the relative viability (NCI-H1563; first compound 0.03162 µM) of the same compound?
Answer: 0.852

Question: And the relative viability (NCI-H1563; first compound 0.1 µM)?
Answer: 0.891

Question: What about the relative viability (NCI-H2023; first compound 0.001 µM) of the same compound?
Answer: 0.839

Question: And the relative viability (NCI-H2023; first compound 0.01 µM)?
Answer: 1.01

Question: And the relative viability (NCI-H2023; first compound 0.03162 µM)?
Answer: 0.88

Question: What about the relative viability (NCI-H2023; first compound 0.1 µM) of the same compound?
Answer: 0.875

Question: And the relative viability (NCI-H727; first compound 0.003162 µM)?
Answer: 1.16

Question: And the relative viability (NCI-H727; first compound 0.01 µM)?
Answer: 1

Question: And the relative viability (NCI-H727; first compound 0.03162 µM)?
Answer: 0.797

Question: And the relative viability (NCI-H727; first compound 0.1 µM)?
Answer: 0.79

Question: What about the relative viability (NCI-H1915; first compound 0.001 µM) of the same compound?
Answer: 0.966

Question: And the relative viability (NCI-H1915; first compound 0.003162 µM)?
Answer: 1.21

Question: What about the relative viability (NCI-H1915; first compound 0.01 µM) of the same compound?
Answer: 1.2

Question: What about the relative viability (NCI-H1915; first compound 0.03162 µM) of the same compound?
Answer: 0.983

Question: What about the relative viability (NCI-H1915; first compound 0.1 µM) of the same compound?
Answer: 0.952

Question: What about the relative viability (HOP-62; first compound 0.001 µM) of the same compound?
Answer: 0.802

Question: And the relative viability (HOP-62; first compound 0.003162 µM)?
Answer: 1.16

Question: And the relative viability (HOP-62; first compound 0.01 µM)?
Answer: 1.27

Question: What about the relative viability (HOP-62; first compound 0.03162 µM) of the same compound?
Answer: 0.831

Question: And the relative viability (HOP-62; first compound 0.1 µM)?
Answer: 0.771

Question: What about the relative viability (LC-2-ad; first compound 0.001 µM) of the same compound?
Answer: 0.912

Question: And the relative viability (LC-2-ad; first compound 0.003162 µM)?
Answer: 1.08

Question: What about the relative viability (LC-2-ad; first compound 0.01 µM) of the same compound?
Answer: 0.963

Question: And the relative viability (LC-2-ad; first compound 0.03162 µM)?
Answer: 0.827

Question: What about the relative viability (LC-2-ad; first compound 0.1 µM) of the same compound?
Answer: 0.804

Question: And the relative viability (NCI-H2170; first compound 0.001 µM)?
Answer: 1.03

Question: What about the relative viability (NCI-H2170; first compound 0.003162 µM) of the same compound?
Answer: 1.14

Question: What about the relative viability (NCI-H2170; first compound 0.01 µM) of the same compound?
Answer: 1.24

Question: What about the relative viability (NCI-H2170; first compound 0.03162 µM) of the same compound?
Answer: 0.995

Question: And the relative viability (NCI-H2170; first compound 0.1 µM)?
Answer: 1.01
